Laboratory results as given in the supplement of paper PMC10307832.

Tests used:
Test in all cases: relative viability (nuclei count vs DMSO), 5 days (fraction); higher = more cells survive
[1] = compound: COc1cc(Nc2c(C#N)cnc3cc(OCCCN4CCN(C)CC4)c(OC)cc23)c(Cl)cc1Cl [Bosutinib] + NC(=O)Nc1cc(-c2cccc(F)c2)sc1C(=O)N[C@H]1CCCNC1 [AZD7762] (partner 0.2 µM)
Summary of the method: (§1)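 Medians of duplicate plates are given as relative viability. That measure is the nuclei count in treated wells divided by the count in vehicle wells. Counts were taken on 4× images of lung cancer cell lines in 1536-well plates, 5 days after pin-tool dosing the day after seeding with one drug alone or a fixed anchor-drug dose plus five library-drug doses (not always all listed) in √10 steps.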

[2] = compound: COc1cc(Nc2c(C#N)cnc3cc(OCCCN4CCN(C)CC4)c(OC)cc23)c(Cl)cc1Cl [Bosutinib] + N=C(N)NC(=N)NCCc1ccccc1 [Phenformin] (partner 250 µM)
Summary of the method: as §1

[3] = compound: COc1cc(Nc2c(C#N)cnc3cc(OCCCN4CCN(C)CC4)c(OC)cc23)c(Cl)cc1Cl [Bosutinib] + Cc1nc(NC(=O)N2CCC[C@H]2C(N)=O)sc1-c1ccnc(C(C)(C)C(F)(F)F)c1 [Alpelisib] (partner 2 µM)
Summary of the method: as §1

[4] = compound: COc1cc(Nc2c(C#N)cnc3cc(OCCCN4CCN(C)CC4)c(OC)cc23)c(Cl)cc1Cl [Bosutinib] + Cc1nc(Nc2ncc(C(=O)Nc3c(C)cccc3Cl)s2)cc(N2CCN(CCO)CC2)n1 [Dasatinib] (partner 0.075 µM)
Summary of the method: as §1

[5] = compound: COc1cc(Nc2c(C#N)cnc3cc(OCCCN4CCN(C)CC4)c(OC)cc23)c(Cl)cc1Cl [Bosutinib] + CS(=O)(=O)CCNCc1ccc(-c2ccc3ncnc(Nc4ccc(OCc5cccc(F)c5)c(Cl)c4)c3c2)o1 [Lapatinib] (partner 2 µM)
Summary of the method: as §1

| Cell Line | relative viability ([1]; first compound 0.01 µM) | relative viability ([1]; first compound 0.03162 µM) | relative viability ([1]; first compound 0.1 µM) | relative viability ([1]; first compound 1 µM) | relative viability ([2]; first compound 0.01 µM) | relative viability ([2]; first compound 0.03162 µM) | relative viability ([2]; first compound 0.1 µM) | relative viability ([2]; first compound 1 µM) | relative viability ([3]; first compound 0.01 µM) | relative viability ([3]; first compound 0.03162 µM) | relative viability ([3]; first compound 0.1 µM) | relative viability ([3]; first compound 1 µM) | relative viability ([4]; first compound 0.01 µM) | relative viability ([4]; first compound 0.03162 µM) | relative viability ([4]; first compound 0.1 µM) | relative viability ([4]; first compound 1 µM) | relative viability ([5]; first compound 0.01 µM) | relative viability ([5]; first compound 0.03162 µM) | relative viability ([5]; first compound 0.1 µM) | relative viability ([5]; first compound 1 µM) |
| --- | --- | --- | --- | --- | --- | --- | --- | --- | --- | --- | --- | --- | --- | --- | --- | --- | --- | --- | --- | --- |
| NCI-H2126 | 0.982 | 1.04 | 1.03 | 1.04 | 0.519 | 0.567 | 0.544 | 0.568 | 0.712 | 0.781 | 0.733 | 0.685 | 0.583 | 0.571 | 0.594 | 0.62 | 0.742 | 0.718 | 0.724 | 0.701 |
| NCI-H2170 | 0.922 | 0.924 | 0.819 | 0.801 | 0.391 | 0.418 | 0.427 | 0.328 | 0.821 | 0.866 | 0.797 | 0.711 | 0.559 | 0.583 | 0.556 | 0.608 | 0.268 | 0.268 | 0.282 | 0.282 |
| NCI-H2347 | 0.748 | 0.725 | 0.777 | 0.487 | 0.323 | 0.453 | 0.54 | 0.376 | 1 | 1.07 | 1.06 | 1.12 | 0.296 | 0.324 | 0.314 | 0.258 | 0.923 | 1.05 | 0.911 | 0.989 |
| NCI-H2405 | 0.873 | 0.739 | 0.701 | 0.598 | 0.413 | 0.385 | 0.386 | 0.281 | 0.886 | 0.759 | 0.837 | 0.365 | 0.259 | 0.204 | 0.215 | 0.238 | 1.23 | 1.2 | 0.983 | 0.895 |
